From patent publication US10507227B2, “Cationic antimicrobial peptides” (The Hospital for Sick Children, priority 2014, dated 2019)
Values after ≈ are worked out from the molar mass of the structure shown.

Key:
[1] = test system: clinical strains of P. aeruginosa; assay: microbe, parasite or virus in culture; assay type: cell-based, Pseudomonas aeruginosa; conditions: for MIC: Pseudomonas aeruginosa
Description: MICs (μg/ml, x-axis) for each compound are shown below each graph. […] The OD at 600 nm quantitates the extent of bacterial growth. Diamonds=L6K-F17; squares=tobramycin. Incubation: 37° C. for 19-24 hours.
Nine different clinical P. aeruginosa isolates were tested with a representative CAP, L-6KF17.

[2] = test system: clinically isolated P. aeruginosa mucoid strains; assay: microbe, parasite or virus in culture; conditions: Pseudomonas aeruginosa
Description: (§1) The clinically isolated P. aeruginosa mucoid strains that were used in these experiments are described in Table 1.
(§2) Methods: Prep Work—3 Days Culture the Clinical Mucoid P. aeruginosa Strains Isolated from CF Patients • 1. Freshly subculture the glycerol stock of the strain (stored at −80° C.) by streaking onto a blood agar (3˜4 streaks). Incubate the blood agar plate at 37° C. for 24 hr. The consistency of the mucoid phenotype can be improved by further subculturing (e.g., a total of 3 times, one/day). • 2. The following day, pick a few colonies and streak them onto a fresh blood agar. Note: Every time the cells are cultured using the stock strains (stored at −80° C.), they should be subcultured 3 times in total, and the last blood agar plate is then good for about one week. In the following week, the strains can be re-subcultured from the last agar plate to grow fresh colonies—this needs only to be done once (no need to do it 3 times). If the mucoid phenotype is lost, the glycerol stocks (−80° C.) should be used, and subcultured 3 times. Biofilm Assay—Day 1 Grow Overnight Cell Culture • 1. Inoculate freshly cultured cells (see prep work) in 10 mL TSB, and grow overnight at 37° C. on a shaker. […] Biofilm Assay—Day 2 Biofilm Set-up • 1. Make 0.5 McFarland for each strain/organism (add ˜100 μL O/N culture to 2 mL 50% TSB): • 0.5 McFarland=10^8 CFU/mL. • To calibrate a colourimeter/turbidity meter: • Positive blank: place a solid marker in the holder; turn the left knob to adjust to zero. • Negative blank: use a glass tube containing 50% TSB (1:1 TSB/H2O); adjust the right knob to 100% T. • Non-mucoid strains should be read in the lower ‘red zone’ on a colorimeter/turbidity meter. • Mucoid strains should be a bit heavier, and read in the mid ‘red zone’. • 2. Make bacterial inoculums: to a 50 mL falcon tube, add 300 μL of 0.5 McFarland to 19.7 mL of TSB. • 3. Mix the tube gently by inverting. • 4. In the biosafety fume hood or beside the flame: • Label a 96-well plate: strain and time. • Pour inoculum into a reservoir. • Using the multi-channel pipet, add 150 μL of inoculum into each well, leave the last column empty (last column=negative control, no cells). • Carefully place a peg lid onto the plate, match the cut corners. • 5. Place the plate on a shaker in 37° C. incubator (requires ≥3 h). Checking Biofilm Plate Growth • 1. Check plates periodically using a plate-reader to determine OD readings: • At OD650, aim for ˜0.045-0.050. • Depending on the strain, require 3-28 h to grow. […] Loading Antibiotic Plates • 1. Place the peg lid (containing biofilm growth) of the susceptibility plate into a pre-made 96-well antibiotic plate (see protocol from Day 1; see FIG. 1). Incubate at 37° C. for 24 h. * This will be referred to the planktonic growth plate, which measures the planktonic susceptibility in the biofilm assay, or MICs. * • 2. Place the lid of 96-well antibiotic plate onto the previous susceptibility plate, and keep in the fridge for reference until the experiment is completed. • 3. Proceed to perform inoculum check (see below) Inoculum Check • 1. Purity check: • Take a loopful of bacteria culture from any well of the susceptibility plate. • Spread onto half of a blood agar plate. • Place in the incubator at 37° C. for 24 h. • 2. Inoculum check: • In sterile Eppendorf tubes or liver vials (need 4 per strain), prepare the following dilutions: • a. 10^2: […] from any well of the susceptibility plate. • b. 10^3: 900 μL of H2O and 100 μL of mixture from Step (a). • c. 10^4: 900 μL of H2O and 100 μL of mixture from Step (b). • d. 10^5: 900 μL of H2O and 100 μL of mixture from Step (c). • Split blood agar plates into quadrants: two for 10^4 and two for 10^5. • Take 50 μL from Step (c) or Step (d) and place onto blood agar plates. • Let dry for about 30 min in the hood with the lid closed, and then incubate upside-down at 37° C. for 18˜24 h.

[3] = test system: clinically isolated P. aeruginosa mucoid strains (biofilm); assay: Biofilm antibacterial susceptibility assay, biofilm recovery plate (BICs); assay type: cell-based, Pseudomonas aeruginosa
Description: as §1, §2

With `C[C@H](NC(=O)[C@H](C)NC(=O)[C@H](Cc1ccccc1)NC(=O)[C@H](C)NC(=O)[C@H](C)NC(=O)[C@H](Cc1c[nH]c2ccccc12)NC(=O)[C@H](C)NC(=O)[C@H](C)NC(=O)[C@H](Cc1ccccc1)NC(=O)[C@H](C)NC(=O)[C@H](C)NC(=O)[C@H](CCCCN)NC(=O)[C@H](CCCCN)NC(=O)[C@H](CCCCN)NC(=O)[C@H](CCCCN)NC(=O)[C@H](CCCCN)NC(=O)[C@@H](N)CCCCN)C(N)=O` [L-6KF17] the “MIC compared with tobramycin” value ([1]; nine clinical P. aeruginosa isolates) was “equal to or superior to tobramycin in most cases”.
With `C[C@@H](O)[C@H]1C(=O)N2C(C(=O)O)=C(S[C@@H]3CN[C@H](C(=O)N(C)C)C3)[C@H](C)[C@H]12` [Meropenem, meropenem] the MIC ([2]; strain HSC 003B3-1, planktonic) was at most 0.5 µg/mL, the MIC ([2]; strain HSC 020B2-1, planktonic) was 1 to 2 µg/mL (≈ 2.61 to 5.22 µM) and the MIC ([2]; strain HSC 027B2-3, planktonic) was 2 µg/mL (≈ 5.22 µM). The BIC ([3]; strain HSC 003B3-1, biofilm) was at most 0.5 µg/mL, the BIC ([3]; strain HSC 020B2-1, biofilm) was 2 µg/mL and the BIC ([3]; strain HSC 027B2-3, biofilm) was 4 µg/mL.
`NC[C@H]1O[C@H](O[C@H]2[C@H](O)[C@@H](O[C@H]3O[C@H](CO)[C@@H](O)[C@H](N)[C@H]3O)[C@H](N)C[C@@H]2N)[C@H](N)C[C@@H]1O` [Tobramycin, tobramycin] was tested, and the MIC ([2]; strain HSC 003B3-1, planktonic) was 2 to 8 µg/mL (≈ 4.28 to 17.1 µM), the MIC ([2]; strain HSC 020B2-1, planktonic) was 32 to 64 µg/mL (≈ 68.4 to 137 µM) and the MIC ([2]; strain HSC 027B2-3, planktonic) was over 128 µg/mL. For the same compound, the MIC ([2]; strain SMH 022B5-2, planktonic) was at most 0.5 µg/mL, the MIC ([2]; strain SMH 051B3-1, planktonic) was at most 0.5 µg/mL and the MIC ([2]; strain SMH 123E1-1, planktonic) was at most 0.5 µg/mL. The MIC ([1]; strain HSC 002B10-2) was 1 µg/mL (≈ 2.14 µM), the MIC ([1]; strain HSC 004B1-3) was 8 µg/mL (≈ 17.1 µM) and the MIC ([1]; strain HSC 007E3-2) was 8 µg/mL (≈ 17.1 µM). The MIC ([1]; strain HSC 035B7-1) was over 32 µg/mL, the MIC ([1]; strain SMH 064B15-2) was 2 µg/mL (≈ 4.28 µM) and the MIC ([1]; strain SMH 072B5-2) was over 32 µg/mL. It also gave an MIC ([1]; strain SMH 112B41) of 2 µg/mL (≈ 4.28 µM), an MIC ([1]; strain SMH 130B12-1) of 8 µg/mL (≈ 17.1 µM) and an MIC ([1]; strain SMH 154B10-2) of 16 µg/mL (≈ 34.2 µM). The BIC ([3]; strain HSC 003B3-1, biofilm) was 8 to 64 µg/mL, the BIC ([3]; strain HSC 020B2-1, biofilm) was 128 µg/mL and the BIC ([3]; strain HSC 027B2-3, biofilm) was over 128 µg/mL. For the same compound, the BIC ([3]; strain SMH 022B5-2, biofilm) was at most 0.5 µg/mL, the BIC ([3]; strain SMH 051B3-1, biofilm) was at most 0.5 µg/mL and the BIC ([3]; strain SMH 123E1-1, biofilm) was 0.5 to 1 µg/mL.
